# What was measured:
# [1] = biological target: Muscarinic acetylcholine receptor; assay: Displacement of [3H]-OXO-M (oxotremorine-M) from the central muscarinic receptor sites of the rat brain membranes; assay type: cell membranes, Membrane
# Oryctolagus cuniculus [2] = species on record: Oryctolagus cuniculus; assay: Percent maximum inhibition of the twitch response in the electrically stimulated rabbit vas deferens was determined.; assay type: functional
# [3] = biological target: T1, Muscarinic acetylcholine receptor M1 (Rattus norvegicus, UniProt P08482); assay: Displacement of [3H]-Pz (pirenzepine) from the muscarinic receptor M1 of the rat hippocampus; assay type: tissue-based
# T1 sequence (P08482 whole entry): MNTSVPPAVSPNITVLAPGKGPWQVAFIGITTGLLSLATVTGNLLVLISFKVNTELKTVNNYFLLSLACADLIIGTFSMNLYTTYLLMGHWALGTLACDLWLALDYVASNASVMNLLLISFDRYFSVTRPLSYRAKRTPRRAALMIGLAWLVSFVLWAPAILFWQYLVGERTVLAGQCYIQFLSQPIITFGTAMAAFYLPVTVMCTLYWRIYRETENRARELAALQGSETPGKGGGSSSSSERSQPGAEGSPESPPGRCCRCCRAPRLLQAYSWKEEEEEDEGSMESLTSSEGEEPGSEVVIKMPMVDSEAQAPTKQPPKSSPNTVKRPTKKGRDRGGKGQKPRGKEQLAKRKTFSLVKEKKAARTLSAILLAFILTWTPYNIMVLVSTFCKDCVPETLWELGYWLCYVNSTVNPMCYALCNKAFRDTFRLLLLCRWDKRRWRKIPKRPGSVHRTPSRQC
# Oryctolagus cuniculus [4] = species on record: Oryctolagus cuniculus; assay: Compound was evaluated for the inhibition of the twitch response in the electrically stimulated rabbit vas deferens; assay type: functional
Compound,IC50 [1] [nM],Inhibition (Oryctolagus cuniculus [2]) [%],IC50 [3] [nM],IC50 (Oryctolagus cuniculus [4]) [nM]
C[N+](C)(C)CC#CCOC(=O)Nc1cccc(Cl)c1.[Cl-],355,91,,
CCCCCCOc1cscc1C1=CCCN(C)C1,> 900,93,663,39000
CCCCCCOc1nscc1C1=CCCN(C)C1,> 900,43,715,
CCCCOc1nscc1C1=CCCN(C)C1,544,18,565,
CCCCCCOc1nonc1C1=CCCN(C)C1,70,47,,
CCCCOc1nonc1C1=CCCN(C)C1,24,12,,
CCCCOc1noc(C)c1C1=CCCN(C)C1,759,,,
CCCCOc1nsnc1C1=CCCN(C)C1,1.4,,,
CCCCOc1cscc1C1=CCCN(C)C1,477,18,369,
CCCCCCOc1nsnc1C1=CCCN(C)C1 [XANOMELINE],,88,,
